The results in this text go back to ChEMBL document CHEMBL1201862, “PubChem BioAssay data set” (2004).

Molecules are shown by their SMILES. Calls of active or inactive are those of the source.

Data set [1] concerns the target Nucleotide-binding oligomerization domain-containing protein 1 (Homo sapiens, UniProt Q9Y239). Put plainly: NOD1 signaling inhibitors, SAR follow-up, revised (AID 2333). Format: functional.
Data set [2] has as its system HEK293. Put plainly: cells. As to conditions: Homo sapiens. Format: functional, cell-based.
Data set [3] addresses Nucleotide-binding oligomerization domain-containing protein 2 (Homo sapiens, UniProt Q9HC29). As to the kind of experiment: NOD2 signaling inhibitors, cell-based, luminescence, uHTS, HEK293 (AID 1566). Format: functional.
The subject of data set [4] is HEK293. Put plainly: NOD2 signaling inhibitors in MDP-stimulated cells, cell-based, uHTS, luminescence (AID 2001). Format: functional. As to conditions: Homo sapiens.
Data set [5] deals with HEK293. Put plainly: NOD1 signaling inhibitors, primary screen, cell-based, luminescence, uHTS (AID 1578). Format: functional. As to conditions: Homo sapiens.
The test system of data set [6] is HEK293. As to the kind of experiment: cells. It counts as functional, cell-based. The settings on record: Homo sapiens. This is another data set of the same source.
The target of data set [7] is Tumor necrosis factor (Homo sapiens, UniProt P01375). As to the kind of experiment: TNFa-triggered NF-kB activation inhibitors, SAR follow-up, cell-based, revised (AID 2337). It counts as functional.
The subject of data set [8] is HEK293. Put plainly: cells. The settings on record: Homo sapiens.
In data set [9] the test system is H9c2. As to the kind of experiment: cells. It counts as functional, cell-based. As to conditions: Rattus norvegicus, H9c2, Myocardium.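 Note: confirmatory concentration-response retest of ultra-high-throughput screening hits for modulation of myocardial damage; cell death induced by hydrogen peroxide oxidative stress; compound pretreatment for 60 min then peroxide exposure for 2 h; potency is for protecting the cells against peroxide damage rather than for killing them.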
For data set [10], the system named is HEK293. Put plainly: cells. The settings on record: Homo sapiens. Format: functional, cell-based. This is another data set of the same source.
Data set [11] concerns the target T1, fMet-Leu-Phe receptor (Homo sapiens, UniProt P21462).
T1 sequence (P21462 whole entry): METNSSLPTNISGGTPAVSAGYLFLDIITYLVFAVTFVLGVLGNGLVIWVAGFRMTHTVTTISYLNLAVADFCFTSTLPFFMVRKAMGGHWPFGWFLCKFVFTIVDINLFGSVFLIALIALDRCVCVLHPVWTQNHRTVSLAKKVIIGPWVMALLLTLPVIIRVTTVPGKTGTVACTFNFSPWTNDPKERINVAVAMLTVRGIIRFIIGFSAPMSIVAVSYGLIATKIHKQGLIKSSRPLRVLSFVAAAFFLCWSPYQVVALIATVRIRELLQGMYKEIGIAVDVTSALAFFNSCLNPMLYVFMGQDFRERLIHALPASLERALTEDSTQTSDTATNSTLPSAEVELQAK
As to the kind of experiment: FPR ligands, dose response (AID 519). Format: functional.

Data set [12] has as its target Lysine-specific demethylase 4A (Homo sapiens, UniProt O75164). Put plainly: JMJD2A histone demethylase inhibitors, dose response, selectivity assay for GASC-1 inhibitor project, biochemical, DELFIA europium, cherry-picked samples (AID 488840).
Data set [13] deals with T2, Lysine-specific demethylase 4C (Homo sapiens, UniProt Q9H3R0).
T2 sequence (Q9H3R0 whole entry): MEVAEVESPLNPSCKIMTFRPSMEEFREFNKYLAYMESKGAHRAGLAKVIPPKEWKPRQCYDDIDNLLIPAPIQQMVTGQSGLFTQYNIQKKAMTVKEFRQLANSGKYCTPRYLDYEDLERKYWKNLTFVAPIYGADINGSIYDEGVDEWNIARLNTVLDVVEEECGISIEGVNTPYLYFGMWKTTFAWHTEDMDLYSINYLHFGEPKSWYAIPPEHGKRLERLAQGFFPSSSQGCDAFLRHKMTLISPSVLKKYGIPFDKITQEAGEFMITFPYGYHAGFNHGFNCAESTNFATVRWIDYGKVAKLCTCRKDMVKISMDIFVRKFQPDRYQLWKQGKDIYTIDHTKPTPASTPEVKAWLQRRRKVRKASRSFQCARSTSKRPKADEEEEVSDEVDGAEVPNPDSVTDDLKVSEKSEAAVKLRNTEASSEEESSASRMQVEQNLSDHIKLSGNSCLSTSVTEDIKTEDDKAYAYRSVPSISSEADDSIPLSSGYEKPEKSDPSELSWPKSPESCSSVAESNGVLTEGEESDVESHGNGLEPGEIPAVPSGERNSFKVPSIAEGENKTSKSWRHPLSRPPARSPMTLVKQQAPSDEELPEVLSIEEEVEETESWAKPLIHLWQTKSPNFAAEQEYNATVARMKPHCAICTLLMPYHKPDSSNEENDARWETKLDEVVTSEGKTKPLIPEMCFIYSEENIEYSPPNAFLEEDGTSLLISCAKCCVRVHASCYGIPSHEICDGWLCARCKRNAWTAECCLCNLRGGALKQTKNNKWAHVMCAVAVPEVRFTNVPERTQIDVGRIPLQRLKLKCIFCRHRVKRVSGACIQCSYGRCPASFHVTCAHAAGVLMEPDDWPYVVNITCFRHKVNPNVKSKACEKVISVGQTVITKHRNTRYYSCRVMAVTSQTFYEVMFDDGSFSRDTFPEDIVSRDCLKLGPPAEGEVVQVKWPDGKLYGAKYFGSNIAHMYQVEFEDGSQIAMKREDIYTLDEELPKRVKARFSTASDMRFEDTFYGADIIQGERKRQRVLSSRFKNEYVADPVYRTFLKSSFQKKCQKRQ
Put plainly: GASC-1 (JMJD2C) histone demethylase inhibitors, dose response, biochemical, DELFIA europium, cherry-picked samples (AID 488835). Format: functional.

Data set [14] has as its target T3, Estrogen receptor beta (Homo sapiens, UniProt Q92731). Put plainly: ERβ–SRC-3 coactivator interaction inhibitors, confirmation, orthogonal assay, biochemical, ELISA, streptavidin-HRP readout (AID 1060). On the technique in general: An ELISA detects its analyte on a solid surface through an enzyme-linked reagent.
In data set [15] the target is T4, Voltage-gated N-type calcium channel alpha-1B subunit/Amyloid beta A4 precursor protein-binding family A member 1 (Homo sapiens, UniProt Q00975+Q02410). Put plainly: disruptors of Mint-PDZ/N-type channel peptide interaction – biochemical, HTRF, SAR follow-up (AID 2489). It counts as functional. For orientation: Time-resolved FRET reads energy transfer from a long-lived donor to a nearby acceptor.
T4 sequence (Q00975 whole entry): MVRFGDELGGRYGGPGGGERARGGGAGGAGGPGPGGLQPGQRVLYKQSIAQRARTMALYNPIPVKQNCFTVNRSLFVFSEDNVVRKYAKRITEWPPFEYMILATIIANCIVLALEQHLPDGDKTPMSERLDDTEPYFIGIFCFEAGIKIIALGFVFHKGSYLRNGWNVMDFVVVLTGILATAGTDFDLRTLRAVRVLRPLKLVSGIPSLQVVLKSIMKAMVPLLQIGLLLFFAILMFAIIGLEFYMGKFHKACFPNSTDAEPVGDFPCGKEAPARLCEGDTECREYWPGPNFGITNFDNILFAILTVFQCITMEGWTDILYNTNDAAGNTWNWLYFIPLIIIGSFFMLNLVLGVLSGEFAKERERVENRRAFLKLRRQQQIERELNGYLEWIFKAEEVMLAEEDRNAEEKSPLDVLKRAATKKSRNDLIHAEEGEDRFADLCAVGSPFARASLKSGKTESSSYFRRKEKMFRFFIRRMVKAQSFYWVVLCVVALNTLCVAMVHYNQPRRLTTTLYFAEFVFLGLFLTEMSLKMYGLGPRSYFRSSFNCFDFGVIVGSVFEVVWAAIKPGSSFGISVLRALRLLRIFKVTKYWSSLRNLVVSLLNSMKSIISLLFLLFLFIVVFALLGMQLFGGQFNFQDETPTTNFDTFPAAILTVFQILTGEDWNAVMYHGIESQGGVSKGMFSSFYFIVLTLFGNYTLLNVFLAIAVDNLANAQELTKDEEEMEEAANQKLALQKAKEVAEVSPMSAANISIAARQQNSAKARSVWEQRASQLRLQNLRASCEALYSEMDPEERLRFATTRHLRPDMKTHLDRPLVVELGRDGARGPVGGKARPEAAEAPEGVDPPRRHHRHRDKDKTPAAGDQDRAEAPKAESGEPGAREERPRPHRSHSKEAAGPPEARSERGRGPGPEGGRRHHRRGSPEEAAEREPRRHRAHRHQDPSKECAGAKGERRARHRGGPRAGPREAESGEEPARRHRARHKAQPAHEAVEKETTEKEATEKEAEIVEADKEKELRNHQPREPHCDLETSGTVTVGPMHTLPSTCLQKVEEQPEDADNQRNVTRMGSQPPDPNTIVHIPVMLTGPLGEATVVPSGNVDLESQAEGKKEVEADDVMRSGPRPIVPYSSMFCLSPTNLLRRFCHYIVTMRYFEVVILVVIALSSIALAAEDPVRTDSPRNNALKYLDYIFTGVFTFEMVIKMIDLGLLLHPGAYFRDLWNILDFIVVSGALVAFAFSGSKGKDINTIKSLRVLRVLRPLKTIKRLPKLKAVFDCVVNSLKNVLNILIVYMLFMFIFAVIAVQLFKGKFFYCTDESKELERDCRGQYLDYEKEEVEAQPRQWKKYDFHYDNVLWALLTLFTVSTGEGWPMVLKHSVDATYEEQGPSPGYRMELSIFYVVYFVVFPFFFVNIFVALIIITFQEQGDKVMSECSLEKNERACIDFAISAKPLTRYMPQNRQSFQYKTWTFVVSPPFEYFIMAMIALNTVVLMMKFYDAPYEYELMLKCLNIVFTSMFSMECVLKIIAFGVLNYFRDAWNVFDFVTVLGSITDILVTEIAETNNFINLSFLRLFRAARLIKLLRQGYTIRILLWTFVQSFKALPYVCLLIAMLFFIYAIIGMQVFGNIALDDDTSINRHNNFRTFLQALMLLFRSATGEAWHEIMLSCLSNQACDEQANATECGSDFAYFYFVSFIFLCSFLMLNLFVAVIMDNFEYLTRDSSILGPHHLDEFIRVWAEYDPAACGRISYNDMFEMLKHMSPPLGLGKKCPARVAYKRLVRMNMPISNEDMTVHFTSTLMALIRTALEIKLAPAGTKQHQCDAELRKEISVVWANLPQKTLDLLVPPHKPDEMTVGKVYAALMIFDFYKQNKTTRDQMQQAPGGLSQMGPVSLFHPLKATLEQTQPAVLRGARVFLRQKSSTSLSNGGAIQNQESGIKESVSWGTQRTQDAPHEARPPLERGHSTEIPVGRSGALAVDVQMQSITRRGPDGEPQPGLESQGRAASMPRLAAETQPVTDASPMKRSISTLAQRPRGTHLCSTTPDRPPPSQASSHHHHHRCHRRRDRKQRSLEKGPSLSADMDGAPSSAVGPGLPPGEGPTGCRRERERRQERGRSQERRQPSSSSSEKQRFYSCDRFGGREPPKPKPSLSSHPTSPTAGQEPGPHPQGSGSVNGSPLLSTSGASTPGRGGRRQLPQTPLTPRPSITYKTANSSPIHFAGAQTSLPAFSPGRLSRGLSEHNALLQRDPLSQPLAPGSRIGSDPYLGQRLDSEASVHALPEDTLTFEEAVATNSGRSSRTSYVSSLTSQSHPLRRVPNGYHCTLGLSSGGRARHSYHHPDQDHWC
T4 sequence (Q02410 whole entry): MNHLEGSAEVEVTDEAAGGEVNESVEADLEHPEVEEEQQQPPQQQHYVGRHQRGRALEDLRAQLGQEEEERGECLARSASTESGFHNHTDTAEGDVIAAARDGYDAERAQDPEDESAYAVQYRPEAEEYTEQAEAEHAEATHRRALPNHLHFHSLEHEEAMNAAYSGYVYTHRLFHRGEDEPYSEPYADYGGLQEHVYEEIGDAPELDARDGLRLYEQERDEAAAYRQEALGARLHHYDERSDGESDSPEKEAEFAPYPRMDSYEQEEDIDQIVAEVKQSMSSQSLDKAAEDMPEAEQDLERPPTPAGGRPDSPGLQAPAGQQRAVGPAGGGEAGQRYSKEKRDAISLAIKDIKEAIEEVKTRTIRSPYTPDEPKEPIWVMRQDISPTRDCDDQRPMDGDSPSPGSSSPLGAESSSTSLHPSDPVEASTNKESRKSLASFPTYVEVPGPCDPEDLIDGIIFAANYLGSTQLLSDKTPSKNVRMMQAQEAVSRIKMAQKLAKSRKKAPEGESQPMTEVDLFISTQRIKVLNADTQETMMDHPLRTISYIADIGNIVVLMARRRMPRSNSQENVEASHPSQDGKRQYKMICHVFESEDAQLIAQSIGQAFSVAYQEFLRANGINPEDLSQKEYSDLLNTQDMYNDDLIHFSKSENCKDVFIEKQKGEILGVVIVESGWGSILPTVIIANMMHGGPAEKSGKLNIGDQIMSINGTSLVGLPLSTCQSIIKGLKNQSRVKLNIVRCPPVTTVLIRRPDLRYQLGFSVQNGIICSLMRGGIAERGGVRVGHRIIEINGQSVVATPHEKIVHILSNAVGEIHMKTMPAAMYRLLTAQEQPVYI

Data set [16] addresses SUMO E1/E2 (Homo sapiens, UniProt P63279+Q9UBE0+Q9UBT2). As to the kind of experiment: SAR analysis of SUMOylation using HTRF in an in-Vitro dose response assay. [Related pubchem assays (depositor defined):AID2006, AID2011, AID2018, AID2069, AID2658]. Format: functional.
Data set [17] addresses T4, Voltage-gated N-type calcium channel alpha-1B subunit/Amyloid beta A4 precursor protein-binding family A member 1. Put plainly: disruptors of Mint-PDZ/N-type channel peptide interaction – biochemical, HTRF, set 2, SAR follow-up (AID 434980). It counts as functional.
The target of data set [18] is T3, Estrogen receptor beta.
For data set [19], the target named is T5, G-protein coupled receptor 35 (Homo sapiens, UniProt Q9HC97). Put plainly: GPR35 antagonists blocking zaprinast-driven arrestin recruitment, primary screen, imaging, U2OS, beta-arrestin-GFP, zaprinast agonist (AID 2058).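 Note: antagonist potency meaning inhibition of agonist-induced arrestin redistribution.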 It counts as functional. (Recruitment of arrestin is a read-out of receptor activation apart from second messengers.)
T5 sequence (Q9HC97 whole entry): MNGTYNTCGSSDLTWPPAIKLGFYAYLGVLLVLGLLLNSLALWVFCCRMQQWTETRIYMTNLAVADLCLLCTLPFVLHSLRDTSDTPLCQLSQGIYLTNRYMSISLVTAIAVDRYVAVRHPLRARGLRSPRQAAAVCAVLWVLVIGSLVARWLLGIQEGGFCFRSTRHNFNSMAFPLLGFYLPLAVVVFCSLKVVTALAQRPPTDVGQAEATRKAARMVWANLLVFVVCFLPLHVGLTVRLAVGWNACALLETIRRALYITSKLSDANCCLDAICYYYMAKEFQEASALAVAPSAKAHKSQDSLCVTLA
In data set [20] the target is G-protein coupled receptor 55 (Homo sapiens, UniProt Q9Y2T6). Put plainly: GPR55 antagonists, SAR follow-up, counter-screen for GPR35 antagonist project, imaging, image-based (AID 2397). It counts as functional.
The target in data set [21] is T5, G-protein coupled receptor 35. As to the kind of experiment: SAR Analysis for the identification of Selective Antagonists of ERK1/2 Activity in GPR35-Overexpressing U2OS Cells. [Related pubchem assays: 2079, 2058 ]. Format: functional, cell-based.
For data set [22], the target named is Nuclear receptor ROR-alpha (Homo sapiens, UniProt P35398). Put plainly: ROR modulator nuclear receptor reporter panel, late-stage follow-up, ROR modulator project, cell-based, luciferase reporter, panel member RORA (AID 2117).
For data set [23], the target named is Nuclear receptor ROR-gamma (Homo sapiens, UniProt P51449). Put plainly: ROR modulator nuclear receptor reporter panel, late-stage follow-up, ROR modulator project, cell-based, luciferase reporter, panel member RORG (AID 2117).
The target of data set [24] is Cytochrome P450 3A4 (Homo sapiens, UniProt P08684).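 Note: CYP3A4 tested as one member of a cytochrome P450 panel screen.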
The target of data set [25] is Cytochrome P450 2C19 (Homo sapiens, UniProt P33261). Put plainly: Cytochrome panel assay with activity outcomes. Panel member name: p450-cyp2c19 Compounds with AC50 equal or less than 10 uM are considered active. It counts as functional.
Data set [26] deals with Cytochrome P450 2C9 (Homo sapiens, UniProt P11712).
In data set [27] the target is Cytochrome P450 2D6 (Homo sapiens, UniProt P10635).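 Note: CYP2D6 member of a cytochrome P450 panel assay.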
In data set [28] the target is T6, Cytochrome P450 1A2 (Homo sapiens, UniProt P05177).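 Note: PubChem cytochrome P450 panel assay, CYP1A2 panel member.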
T6 sequence (P05177 whole entry): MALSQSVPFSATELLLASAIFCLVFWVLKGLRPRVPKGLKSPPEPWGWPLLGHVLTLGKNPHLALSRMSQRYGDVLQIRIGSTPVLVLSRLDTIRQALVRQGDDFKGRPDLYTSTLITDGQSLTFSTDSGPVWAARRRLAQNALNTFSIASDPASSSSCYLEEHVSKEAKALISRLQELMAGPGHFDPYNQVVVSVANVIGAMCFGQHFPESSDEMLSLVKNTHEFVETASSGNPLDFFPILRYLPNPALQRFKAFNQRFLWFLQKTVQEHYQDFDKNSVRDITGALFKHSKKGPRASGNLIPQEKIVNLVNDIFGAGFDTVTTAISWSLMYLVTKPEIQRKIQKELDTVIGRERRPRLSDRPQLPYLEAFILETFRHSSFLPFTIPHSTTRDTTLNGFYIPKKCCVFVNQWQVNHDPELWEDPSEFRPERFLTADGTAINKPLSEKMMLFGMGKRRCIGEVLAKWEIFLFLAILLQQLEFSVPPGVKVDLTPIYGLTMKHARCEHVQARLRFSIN

In data set [29] the target is Phosphomannomutase 2 (Homo sapiens, UniProt O15305). As to the kind of experiment: Counter screen SAR assay for PMM2 inhibitors via a fluorescence intensity assay. [Related pubchem assays (depositor defined):AID1545, AID1574].
For data set [30], the target named is T7, Mannose-6-phosphate isomerase (Homo sapiens, UniProt P34949).
T7 sequence (P34949 whole entry): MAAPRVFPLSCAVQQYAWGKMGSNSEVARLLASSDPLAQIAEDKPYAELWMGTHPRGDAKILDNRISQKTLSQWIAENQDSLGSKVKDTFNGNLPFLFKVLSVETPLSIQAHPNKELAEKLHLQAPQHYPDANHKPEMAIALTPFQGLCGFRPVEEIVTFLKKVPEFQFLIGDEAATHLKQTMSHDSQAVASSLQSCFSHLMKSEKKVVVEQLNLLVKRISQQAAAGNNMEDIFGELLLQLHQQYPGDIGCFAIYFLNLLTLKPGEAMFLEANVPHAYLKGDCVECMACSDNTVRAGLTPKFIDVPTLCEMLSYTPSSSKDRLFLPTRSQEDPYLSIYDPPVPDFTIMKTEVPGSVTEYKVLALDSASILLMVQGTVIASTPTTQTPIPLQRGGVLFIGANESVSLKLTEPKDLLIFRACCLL
As to the kind of experiment: PMI enzyme inhibitors, confirmation, biochemical, fluorescence intensity (AID 1535).

T3 sequence (Q92731 whole entry): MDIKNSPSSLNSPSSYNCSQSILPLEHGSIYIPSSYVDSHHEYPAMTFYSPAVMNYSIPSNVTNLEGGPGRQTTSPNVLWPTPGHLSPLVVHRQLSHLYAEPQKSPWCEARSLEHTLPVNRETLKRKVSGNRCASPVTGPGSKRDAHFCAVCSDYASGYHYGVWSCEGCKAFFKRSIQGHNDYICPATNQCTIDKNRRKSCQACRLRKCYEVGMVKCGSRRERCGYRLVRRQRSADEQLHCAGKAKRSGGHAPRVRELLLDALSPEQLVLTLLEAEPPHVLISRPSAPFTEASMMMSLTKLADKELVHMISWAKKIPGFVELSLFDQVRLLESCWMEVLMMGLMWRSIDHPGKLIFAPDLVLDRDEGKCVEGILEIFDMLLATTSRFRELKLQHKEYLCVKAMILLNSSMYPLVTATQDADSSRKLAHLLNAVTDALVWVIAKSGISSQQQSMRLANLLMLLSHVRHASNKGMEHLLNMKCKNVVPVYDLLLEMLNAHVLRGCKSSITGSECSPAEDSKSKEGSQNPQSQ
Nucleotide-binding oligomerization domain-containing protein 1, sequence (Q9Y239 whole entry, the tested form may be a part): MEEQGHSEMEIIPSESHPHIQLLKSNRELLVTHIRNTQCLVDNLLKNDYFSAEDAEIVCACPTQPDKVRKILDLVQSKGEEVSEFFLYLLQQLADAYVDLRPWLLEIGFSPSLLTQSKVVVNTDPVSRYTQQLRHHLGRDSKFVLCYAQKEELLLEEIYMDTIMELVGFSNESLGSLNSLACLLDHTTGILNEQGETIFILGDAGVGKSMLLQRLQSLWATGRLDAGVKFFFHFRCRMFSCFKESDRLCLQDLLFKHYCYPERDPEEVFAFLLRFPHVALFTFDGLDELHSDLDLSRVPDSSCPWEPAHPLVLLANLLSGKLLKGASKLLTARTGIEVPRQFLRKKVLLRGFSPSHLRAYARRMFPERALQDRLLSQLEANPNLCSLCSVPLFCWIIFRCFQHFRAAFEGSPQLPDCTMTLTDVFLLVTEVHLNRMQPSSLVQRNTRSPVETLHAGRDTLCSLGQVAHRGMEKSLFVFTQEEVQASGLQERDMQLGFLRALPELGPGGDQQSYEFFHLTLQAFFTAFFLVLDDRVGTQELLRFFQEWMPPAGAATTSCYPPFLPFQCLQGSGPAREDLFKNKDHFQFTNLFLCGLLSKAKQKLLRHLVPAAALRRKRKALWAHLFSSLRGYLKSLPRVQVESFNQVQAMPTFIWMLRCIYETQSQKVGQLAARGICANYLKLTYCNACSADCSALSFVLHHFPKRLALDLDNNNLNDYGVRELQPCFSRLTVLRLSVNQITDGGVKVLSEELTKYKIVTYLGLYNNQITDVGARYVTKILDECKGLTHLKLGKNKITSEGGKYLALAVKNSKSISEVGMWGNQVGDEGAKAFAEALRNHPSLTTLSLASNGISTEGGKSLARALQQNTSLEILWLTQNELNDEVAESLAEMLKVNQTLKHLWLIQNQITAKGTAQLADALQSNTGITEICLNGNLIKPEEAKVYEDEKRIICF

A word on the IC50: it is the concentration at which inhibition is half-maximal. Usually EC50 stands for the concentration needed to bring the measured effect to its halfway point. Regarding `Cc1c(O)ccc2c(-c3ccccc3)cc(=O)oc12`, the IC50 in data set [1] is 6.53 µM (active); in [2] it was > 20 µM (inactive); in data set [4] it was 6.85 µM (active); in [6], > 20 µM (inactive); in data set [7], 6.62 µM (active); in data set [8], > 20 µM (inactive). The IC50 in data set [9] is > 79 µM (inactive); in data set [10], 5.78 µM (active). Further, the values for the EC50 in data set [3] and in data set [5] were 4.67 µM (active) and 16.3 µM (active), respectively.
By Ki is commonly meant the dissociation constant of the complex between target and ligand, obtained from inhibition or displacement. Broadly, the AC50 is the concentration at which the activity in the assay is half-maximal. With `O=c1cc(N2CCc3ccccc32)[nH]c(=O)n1Cc1ccc(F)cc1`, in data set [11], the Ki was > 66.7 µM (inactive). Further, the half-maximal activity concentration (AC50) in [12] is 6.55 µM (active); in data set [13] it was 1.09 µM (active).
On to `COc1ccc(CNC(=O)COC(=O)c2cc(-c3ccco3)nc3ccccc23)cc1`, for which the half-inhibitory concentration (IC50) in data set [14] was > 50 µM (not active); in data set [15] it was > 56.8 µM (inactive); in [16], 6.59 µM (active); in data set [17], 11.4 µM (active); in data set [18], < 1.56 µM (active).
Take `Cc1nc(N2CCC(C)CC2)c2c(C)c(C(=O)Nc3ccc4c(c3)OCCO4)sc2n1`: the IC50 in data set [19] was 1.2 µM (active); in data set [20] it was > 32 µM (inactive); in data set [21], > 32 µM (not active).
Consider `O=S(=O)(Nc1ccc(C(O)(C(F)(F)F)C(F)(F)F)cc1)c1cccc2ccccc12`, for which the IC50 is 7.75 µM (active) in data set [22] and 1.94 µM (active) in data set [23].
For the compound `N#Cc1cccc(NC(=O)N2CC[C@@]3(CCCN(C(=O)Oc4ccccc4)C3)C2)c1`, the AC50 in data set [24] is 2.51 µM (inconclusive); in data set [25] it was “inconclusive”; in data set [26] it was “inconclusive”; in data set [27], “inconclusive”; in data set [28] it was “inconclusive”.
For the compound `Clc1nss/c1=N\c1nc2ccccc2s1`, the IC50 in data set [29] and in [30] was > 100 µM (inactive) in each case.
